Here are results for four compounds from patent US7015249B1, “Methods and compositions for treating diabetes” (Purdue Research Foundation, priority 1997, dated 2006).

Structures are written as SMILES.

Common to all, as to type: cell-based
Experiment [1] has as its target T1, ligand binding domain of mouse PPARβ (Mus musculus, UniProt P35396).
T1 construct: expressed in transfected cells; host or cells: COS-1
T1 sequence (P35396 210-438 limits assumed): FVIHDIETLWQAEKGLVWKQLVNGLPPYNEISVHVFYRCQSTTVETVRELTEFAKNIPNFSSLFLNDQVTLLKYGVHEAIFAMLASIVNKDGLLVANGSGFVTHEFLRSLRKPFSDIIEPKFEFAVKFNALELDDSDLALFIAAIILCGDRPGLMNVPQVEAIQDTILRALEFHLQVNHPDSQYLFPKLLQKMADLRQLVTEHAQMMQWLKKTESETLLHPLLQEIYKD
Nature of the experiment: GAL4-PPARβ chimera / (UAS)5-tk-CAT reporter transfection assay in COS-1 cells. The settings on record: 100 μM in DMSO. Here is the method: (§1) COS-1 cells (American Type Culture Collection) were maintained in α-minimal essential media (Sigma) supplemented with 8% fetal calf serum (Gibco BRL), 0.2 mg/ml streptomycin and 200 U/ml penicillin. The pSG5-GAL4-PPAR chimera expression constructs, containing the ligand binding domain of mouse PPARα, β or γ, as well as the (UAS)5-tk-CAT reporter construct were kindly provided by Steven A. Kliewer (Glaxo Research Institute). At 75–90% confluence, COS-1 cells were co-transfected with GAL4-PPAR, (UAS)5-tk-CAT, and pSV-βGal (Promega) as described in Lehmann, J. M. et al., J. Biol. Chem. 270, 12953–12956 (1995). Twenty-four hours after transfection, the cells were treated with the indicated amounts of CLA, or a single 100 μM dose of 4-chloro-6-(2,3-xylindino)-2-pyrimidinylthio)-acetic acid (Wy 14,643; a hypolipidemic drug known as a peroxisome proliferator). After 6 hours of treatment, the cells were harvested and chloramphenicol acetyltransferase levels were assessed by ELISA (Gibco BRL) according to the manufacturer's instructions. Data is expressed relative to β-galactosidase activity. CLA used in this experiment was obtained from a commercially available mixture from NuChek Prep, Elysian Minn. The mixture contained about 41.2% by weight of a composition including cis,trans-9,11-octadecadienoic acid and trans,cis-9,11-octadecadienoic acid, about 44% by weight trans,cis-10,12-octadecadienoic acid, about 9.4% by weight cis,cis-10,12-octadecadienoic acid, about 1.3% by weight of a composition including trans,trans-9,11-octadecadienoic acid and trans,trans-10,12-octadecadienoic acid, about 1.1% by weight cis,cis-9,11-octadecadienoic acid, about 0.7% by weight linoleic acid and about 2.2% of other lipids as mentioned above.
In this example, certain PPAR subtypes are shown to be activated by CLA isomers. However, a 100 μM concentration of selected isomers of CLA were also utilized in the transfection assay to determine whether specific isomers of CLA could activate any of the PPAR subtypes.

Experiment [2] concerns the target T2, ligand binding domain of mouse PPARα (Mus musculus, UniProt P23204).
T2 construct: expressed in transfected cells; host or cells: COS-1
T2 sequence (P23204 239-466 limits assumed): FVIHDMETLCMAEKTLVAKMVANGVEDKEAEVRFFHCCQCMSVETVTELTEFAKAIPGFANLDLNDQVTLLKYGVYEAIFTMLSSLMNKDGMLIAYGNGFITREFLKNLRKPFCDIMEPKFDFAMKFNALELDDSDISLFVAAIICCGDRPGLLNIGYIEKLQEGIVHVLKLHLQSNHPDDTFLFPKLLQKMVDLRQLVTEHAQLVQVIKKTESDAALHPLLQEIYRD
Kind of experiment: GAL4-PPARα chimera / (UAS)5-tk-CAT reporter transfection assay in COS-1 cells. The settings on record: 100 μM in DMSO. Here is the method:
as §1, with “The mixture contained about 41.2% by weight of a composition including cis,trans-9,11-octadecadienoic acid and trans,cis-9,11-octadecadienoic acid, about 44% by weight trans,cis-10,12-octadecadienoic acid, about 9.4% by weight cis,cis-10,12-octadecadienoic acid, about 1.3% by weight of a composition including trans,trans-9,11-octadecadienoic acid and trans,trans-10,12-octadecadienoic acid, about 1.1% by weight cis,cis-9,11-octadecadienoic acid, about 0.7% by weight linoleic acid and about 2.2% of other lipids as mentioned above.” left out

A further experiment addresses T3, full length mouse PPARγ (Mus musculus, UniProt P37238).
T3 construct: constructs including full length mouse PPARα, PPARβ or PPARγ and a luciferase reporter gene; expressed in transfected cells; host or cells: CV-1 (African green monkey kidney cells)
T3 sequence (P37238 1-505): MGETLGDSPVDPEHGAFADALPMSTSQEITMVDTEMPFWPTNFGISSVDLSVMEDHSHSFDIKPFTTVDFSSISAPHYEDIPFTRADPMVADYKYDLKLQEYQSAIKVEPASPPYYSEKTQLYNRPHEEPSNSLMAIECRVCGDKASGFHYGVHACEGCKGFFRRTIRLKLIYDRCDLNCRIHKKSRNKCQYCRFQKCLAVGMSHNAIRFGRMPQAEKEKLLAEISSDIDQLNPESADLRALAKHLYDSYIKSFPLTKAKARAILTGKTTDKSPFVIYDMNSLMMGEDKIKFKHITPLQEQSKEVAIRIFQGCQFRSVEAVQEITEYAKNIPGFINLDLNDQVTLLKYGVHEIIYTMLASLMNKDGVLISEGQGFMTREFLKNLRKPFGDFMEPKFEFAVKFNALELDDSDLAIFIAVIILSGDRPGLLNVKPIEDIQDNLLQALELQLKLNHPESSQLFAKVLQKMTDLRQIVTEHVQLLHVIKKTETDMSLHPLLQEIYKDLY
Nature of the experiment: Full length PPARγ PPRE-luciferase reporter assay in CV-1 cells. As to conditions: 100 μM, six hours. Here is the method: (§2) The data in FIGS. 5–7 was generated utilizing constructs including full length mouse PPARα, PPARβ or PPARγ and a luciferase reporter gene. The CV-1 cell line (African green monkey kidney cells) used was obtained from American Type Culture Collection (#CCL-70). The cells were grown in Eagle minimal essential medium containing 10% fetal bovine serum (GIBCO). For each transfection involving PPARα, 625 ng pcDNA3-PPARα expression vector was used along with 250 ng of psV-GL-2-PPRE-luciferase reporter plasmid and 250 ng of pSV-β-galactosidase internal control plasmid. For each transfection involving PPARβ or PPARγ, either 625 ng pSG5-mouse-PPARβ or 625 ng pSG5-mouse-PPARγ was used along with 250 ng of the psV-GL2-PPRE-luciferase reporter plasmid and 250 ng of pSV-β-galactosidase internal control plasmid. Cells were transfected using Lipofect AMINE™ reagent (GIBCO) and phenol red-free, serum free medium (OptiMEM®I, GIBCO Life Technologies, Grand Island, N.Y.). Seven hours post-transfection, charcoal stripped serum (Cocalico Biologicals, Inc. Reamstown, Pa.) was added to the media (10% final concentration) for an overnight incubation (16 hours). […] The data were quantified relative to luciferase/β-galactosidase activity expressed as a ratio to vehicle-treated cells (0.1% DMSO).

The target of another experiment is T4, full length mouse PPARβ (Mus musculus, UniProt P35396).
T4 construct: constructs including full length mouse PPARα, PPARβ or PPARγ and a luciferase reporter gene; expressed in transfected cells; host or cells: CV-1 (African green monkey kidney cells)
T4 sequence (P35396 1-440): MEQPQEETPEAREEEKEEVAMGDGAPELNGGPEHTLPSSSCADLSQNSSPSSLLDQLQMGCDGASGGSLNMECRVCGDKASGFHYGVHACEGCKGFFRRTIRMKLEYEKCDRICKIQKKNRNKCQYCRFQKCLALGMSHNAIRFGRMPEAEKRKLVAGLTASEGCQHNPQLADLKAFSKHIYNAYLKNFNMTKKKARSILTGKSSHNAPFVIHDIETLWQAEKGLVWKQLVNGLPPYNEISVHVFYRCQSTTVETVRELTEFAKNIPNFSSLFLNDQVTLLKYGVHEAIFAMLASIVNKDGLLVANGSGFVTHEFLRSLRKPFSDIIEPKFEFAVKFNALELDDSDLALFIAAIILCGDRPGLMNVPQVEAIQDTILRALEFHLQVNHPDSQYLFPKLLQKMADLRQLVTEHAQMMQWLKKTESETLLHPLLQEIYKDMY
Nature of the experiment: Full length PPARβ PPRE-luciferase reporter assay in CV-1 cells. The settings on record: 100 μM. The method, then: as §2

A further experiment concerns the target T5, full length mouse PPARα (Mus musculus, UniProt P23204).
T5 construct: constructs including full length mouse PPARα, PPARβ or PPARγ and a luciferase reporter gene; expressed in transfected cells; host or cells: CV-1 (African green monkey kidney cells)
T5 sequence (P23204 1-468): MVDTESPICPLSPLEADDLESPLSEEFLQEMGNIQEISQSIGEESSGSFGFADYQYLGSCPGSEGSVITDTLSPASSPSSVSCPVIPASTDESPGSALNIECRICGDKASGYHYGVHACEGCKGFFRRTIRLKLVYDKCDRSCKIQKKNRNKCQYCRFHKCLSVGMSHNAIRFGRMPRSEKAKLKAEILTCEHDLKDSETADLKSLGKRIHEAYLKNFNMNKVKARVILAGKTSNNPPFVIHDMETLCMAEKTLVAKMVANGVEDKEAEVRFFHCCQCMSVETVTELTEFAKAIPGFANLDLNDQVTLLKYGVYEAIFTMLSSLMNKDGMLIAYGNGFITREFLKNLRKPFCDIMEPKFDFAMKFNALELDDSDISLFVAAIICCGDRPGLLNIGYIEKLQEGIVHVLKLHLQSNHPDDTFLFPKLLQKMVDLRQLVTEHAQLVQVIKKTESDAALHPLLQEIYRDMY
Nature of the experiment: Full length PPARα PPRE-luciferase reporter assay in CV-1 cells. The settings on record: 100 μM, six hours. The method, then:
as §2

[3] abbreviates: listed as trans,cis-10,12-octadecadienoic acid.

In the case of `CCCCCC/C=C/C=C/CCCCCCCC(=O)O` [9E11E, trans,trans-9,11-octadecadienoic acid], the “activation of PPARβ, compared with CLA mixture (FIG. 4)” value in experiment [1] is recorded as “more than CLA mixture alone”.

With `CCCCCC/C=C/C=C\CCCCCCCC(=O)O` [9Z11E, cis,trans-9,11-octadecadienoic acid], the “activation of PPARβ, compared with CLA mixture (FIG. 4)” value in experiment [1] is listed as “more than the CLA mixture”. Further, the “activation of PPARα, compared with CLA mixture (FIG. 4)” value in experiment [2] is recorded as “more than the CLA mixture”.

Regarding `CCCCCC/C=C\C=C/CCCCCCCC(=O)O` [9Z11Z, cis,cis-9,11-octadecadienoic acid], the “activation of PPARβ, compared with CLA mixture (FIG. 4)” value in experiment [1] is “more than the CLA mixture”. Further, the “activation of PPARα, compared with CLA mixture (FIG. 4)” value in experiment [2] is “more than the CLA mixture”.

On to `CCCCC/C=C\C=C\CCCCCCCCC(=O)O` [trans,cis-10,12 CLA isomer, trans,cis-10,12-octadecadienoic acid], for which the “activation of full length PPARγ vs DMSO control (FIG. 7)” value at full length mouse PPARγ was “activate”. The results for the “activation of full length PPARβ vs DMSO control / CLA mixture (FIG. 6)” value at full length mouse PPARβ and at full length mouse PPARβ (setting [3]) were “significantly more than the CLA mixture alone” and “activate”, respectively. Moreover, the “activation of full length PPARα vs DMSO control / CLA mixture (FIG. 5)” value is “significantly more than the CLA mixture alone” on full length mouse PPARα and “activate” at full length mouse PPARα (setting [3]).
